Test results from US11103509B2 (University of Kentucky Research Foundation, priority 2018, dated 2021).
Entries after “also recorded” stand apart in the source; their conditions may differ. Like-named read-outs stand apart in the source and are kept apart here.

Assays:
[1] = human, read-out: Cmax (μM) in plasma, cited from earlier work
human mPGES-1 [2] = biological target: T1, human mPGES-1 (Homo sapiens, UniProt O14684); test: in vitro inhibitory activity against human mPGES-1 (PGE2 enzyme immunoassay); assay type: biochemical; details: lapatinib constant 1 μM, GSH at different concentrations (FIG. 3D)
T1 construct: made in house
T1 sequence (O14684 1-152): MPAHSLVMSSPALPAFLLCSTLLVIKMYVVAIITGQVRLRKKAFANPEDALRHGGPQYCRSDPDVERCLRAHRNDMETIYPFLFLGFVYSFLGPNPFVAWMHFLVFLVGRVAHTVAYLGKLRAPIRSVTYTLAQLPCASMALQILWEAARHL

pain in cancer patients [3] = test: clinical data mining: patients complaining about pain in lapatinib clinical trials; assay type: in vivo, human; set-up: Pain decreased compared to control group (%): Arthralgia / Pain decreased compared to control group (%): Musculoskeletal Pain / Pain decreased compared to control group (%): Headache / Pain decreased compared to control group (%): Oral pain / Pain decreased compared to control group (%): Pain-overall / Pain decreased compared to control group (%): Myalgia: concentration or dose not given beside the values
Experimental: The “other adverse events” part of the clinical report was analyzed.
In particular, all of the data from clinical trials NCT00424255, NCT00390455, NCT00371566, and NCT00374322 was collected together as a larger dataset.
(§1) All p values on the differences between groups were calculated using χ^2 tests on GraphPad Prism 6.0. Confidence interval was set at 95%. […] Barnard's tests or Fisher's tests were not chosen due to the large sample size and Yate's correction on χ^2 tests was not adopted due to the same reason.

pain in cancer patients [4] = details: cited from earlier work
human mPGES-1 [5] = biological target: T1, human mPGES-1; test: in vitro inhibitory activity against human mPGES-1 (PGE2 enzyme immunoassay); assay type: biochemical
Experimental: The above computational predictions were followed by in vitro activity assays for their actual inhibitory activity against human mPGES-1 using an ELISA assay previously-described.^16-17, 19 Specifically, a total of 18 FDA-approved drugs were assayed for their inhibitory activity against human mPGES-1.
The protocol for the protein preparation and in vitro activity assays were the same as described previously.^69-72 The enzyme activity assays were performed on ice in 1.5 ml microfuge tubes by using the expressed human mPGES-1. The reaction mixture contained: 0.2 M Na2HPO4/NaH2PO4, pH 7.2, 10 μL; 0.1 M GSH, 2.5 μL; diluted microsomal enzyme (80 μg/mL), 1 μL; PGH2 (0.31 mM in DMF), 5 μL; 1 μL inhibitor; and H2O in a final reaction volume of 100 μL. PGH2 was stored in dry ice and used to initiate the reaction. Compounds were incubated with the enzyme for 15 min at room temperature before the addition of cold PGH2 (1 μM final) to initiate the enzyme reaction. After 30 s, 10 μL of SnCl2 (40 mg/mL) in ethanol was added to stop the reaction. The non-enzymatic conversion of PGH2 to PGE2 was performed in the same buffer devoid of enzyme. The reaction mixture was placed on ice until PGE2 production was determined by the PGE2 enzyme immunoassay as described earlier. IC50 values of the inhibitors were calculated by using the GraphPad Prism 6.0.

pain in cancer patients [6] = test: clinical data mining: pain complaints in phase III clinical trial NCT00490139; assay type: in vivo, human; details: compared to patients given only trastuzumab (FIG. 5)
Experimental: as §1

[7] = tested on: pain symptoms in inflammatory breast cancer patients; details: lapatinib monotherapy, n=17, not statistically significant (p>0.05); cited from earlier work
pain in cancer patients [8] = details: NCT00490139 Group III: oral lapatinib 1500 mg daily, 52 weeks; cited from earlier work
[9] = all individual pains added, four trials
[10] = combined NCT00374322, NCT00390455
[11] = combined NCT00374322, NCT00390455, NCT00424255, NCT00371566
[12] = combined NCT00390455, NCT00424255
[13] = combined NCT00424255, NCT00371566
[14] = combined nine trials (footnote e)
[15] = NCT00371566, with drug total 69
[16] = NCT00374322, with drug total 1573
[17] = NCT00390455, with drug total 141
[18] = NCT00424255, with drug total 349

Structure (SMILES): CS(=O)(=O)CCNCc1ccc(-c2ccc3ncnc(Nc4ccc(OCc5cccc(F)c5)c(Cl)c4)c3c2)o1 [lapatinib]
- Cmax ([1]; 1250 mg orally once daily, trial NCT00477464): 6.06 µM
- Cmax ([1]; 1500 mg (6 pills at 250 mg) once oral daily, trials NCT00486954 and NCT01138046, average Cmax): 8.6 µM
- Cmax ([1]; dose 10 mg, GW572016 ditosylate monohydrate oral suspension (Bence et al.)): 0.019 µM
- Cmax ([1]; dose 25 mg, GW572016 ditosylate monohydrate oral suspension (Bence et al.)): 0.04 µM
- Cmax ([1]; dose 50 mg, GW572016 ditosylate monohydrate oral suspension (Bence et al.)): 0.124 µM
- Cmax ([1]; dose 100 mg, GW572016 ditosylate monohydrate oral suspension (Bence et al.)): 0.213 µM
- Cmax ([1]; dose 175 mg, GW572016 ditosylate monohydrate oral suspension (Bence et al.)): 0.38 µM
- Cmax ([1]; dose 250 mg, GW572016 ditosylate monohydrate oral suspension (Bence et al.)): 0.546 µM
- Cmax ([1]; dose 500 mg, tablets, daily oral, trial EGF10004): 1.76 µM
- Cmax ([1]; dose 650 mg, tablets, daily oral, trial EGF10004): 2.24 µM
- Cmax ([1]; dose 1000 mg, tablets, daily oral, trial EGF10004): 3.18 µM
- competition with co-factor GSH (human mPGES-1 [2]): competes with co-factor GSH; also recorded: GSH-competitive inhibitor
- # of patients complaining pain/# of patients given lapatinib, Counts: Pain-overall (pain in cancer patients [3]; [9]): 304/4754
- patients complaining pain, Percentage (%): Pain-overall (pain in cancer patients [3]; [9]): 6.39%
- Pain decreased compared to control group (%): Pain-overall (pain in cancer patients [3]; all individual pains added, four trials, control drugs or placebo): 28.00%
- # of patients complaining pain/# of patients given lapatinib, Counts: Arthralgia (pain in cancer patients [3]; [10]): 72/1714
- patients complaining pain, Percentage (%): Arthralgia (pain in cancer patients [3]; [10]): 4.20%
- # of patients complaining pain/# of patients given lapatinib, Counts: Headache (pain in cancer patients [3]; [11]): 182/2132
- patients complaining pain, Percentage(%): Headache (pain in cancer patients [3]; [11]): 8.54%
- Pain decreased compared to control group (%): Headache (pain in cancer patients [3]; combined NCT00374322, NCT00390455, NCT00424255, NCT00371566, control drugs or placebo): 23.02%
- Pain decreased compared to control group (%): Arthralgia (pain in cancer patients [3]; combined NCT00374322, NCT00390455, control drugs or placebo): 39.60%
- # of patients complaining pain/# of patients given lapatinib, Counts: Musculoskeletal Pain (pain in cancer patients [3]; [12]): 15/490
- patients complaining pain, Percentage (%): Musculoskeletal Pain (pain in cancer patients [3]; [12]): 3.06%
- Pain decreased compared to control group (%): Musculoskeletal Pain (pain in cancer patients [3]; combined NCT00390455, NCT00424255, control drugs or placebo): 39.67%
- # of patients complaining pain/# of patients given lapatinib, Counts: Oral pain (pain in cancer patients [3]; [13]): 35/418
- patients complaining pain, Percentage (%): Oral pain (pain in cancer patients [3]; [13]): 8.37%
- Pain decreased compared to control group (%): Oral pain (pain in cancer patients [3]; combined NCT00424255, NCT00371566, control drugs or placebo): 18.03%
- # of patients complaining pain/# of patients given lapatinib, Counts: Myalgia (pain in cancer patients [3]; [14]): 321/3314
- patients complaining pain, Percentage (%): Myalgia (pain in cancer patients [3]; [14]): 9.69%
- Pain decreased compared to control group (%): Myalgia (pain in cancer patients [3]; combined nine trials (footnote e), control drugs or placebo): 14.02%
- overall pain relief (in words) (pain in cancer patients [3]; pain-overall category, combined trials, p<0.05): significantly relieve pain in cancer patients
- Headache, With drug pains (pain in cancer patients [4]; [15]): 3
- Oral pain, With drug pains (pain in cancer patients [4]; [15]): 10
- patients reporting arthralgia / patients in lapatinib group (pain in cancer patients [4]; NCT00374322, vs placebo 113/1574): 69/1573
- patients reporting headache / patients in lapatinib group (pain in cancer patients [4]; NCT00374322, vs placebo 185/1574): 140/1573
- Arthralgia, With drug pains (pain in cancer patients [4]; [16]): 69
- Headache, With drug pains (pain in cancer patients [4]; [16]): 140
- Arthralgia, With drug pains (pain in cancer patients [4]; [17]): 3
- Back Pain, With drug pains (pain in cancer patients [4]; [17]): 5
- Bone Pain, With drug pains (pain in cancer patients [4]; [17]): 3
- Headache, With drug pains (pain in cancer patients [4]; [17]): 19
- Musculoskeletal Pain, With drug pains (pain in cancer patients [4]; [17]): 0
- Pain In Extremity, With drug pains (pain in cancer patients [4]; [17]): 1
- Pain-chest/thorax, With drug pains (pain in cancer patients [4]; [17]): 1
- Headache, With drug pains (pain in cancer patients [4]; [18]): 20
- Musculoskeletal Pain, With drug pains (pain in cancer patients [4]; [18]): 15
- Oral pain, With drug pains (pain in cancer patients [4]; [18]): 25
- IC50 (human mPGES-1 [5]): 800 nM
- pain relief in NCT00490139 (in words) (pain in cancer patients [6]): significantly relive all types of pain (p<0.05), except for the back pain
- relief from symptoms including pain (in words) [7]: provide relief from symptoms, including pain, in the short term
- Arthralgia, Patient counts (pain in cancer patients [8]): 290/2057
- Arthralgia, patient percentage (pain in cancer patients [8]): (14.10%)
- Back Pain, patient percentage (pain in cancer patients [8]): (5.79%)
- Bone Pain, Patient counts (pain in cancer patients [8]): 91/2057
- Bone Pain, patient percentage (pain in cancer patients [8]): (4.42%)
- Headache, Patient counts (pain in cancer patients [8]): 161/2057
- Headache, patient percentage (pain in cancer patients [8]): (7.83%)
- Musculoskeletal pain, Patient counts (pain in cancer patients [8]): 70/2057
- Musculoskeletal pain, patient percentage (pain in cancer patients [8]): (3.40%)
- Pain in Extremity, Patient counts (pain in cancer patients [8]): 99/2057
- Pain in Extremity, patient percentage (pain in cancer patients [8]): (4.81%)
